Structures are written as SMILES.

The data set can be described thus: Solubility in toluene. In kind it is physicochemical. As to conditions: 5-level grade A-E. The procedure:
Each of the compounds of the present invention or comparative compounds (2% by mass, 1% by mass, 0.5% by mass, or 0.1% by mass each) was mixed with toluene (1 mL), heated to 100° C., and then left to stand for 30 minutes at room temperature. […] For practical use, the compound needs to be evaluated to be A, B, C, or D. The compound preferably needs to be evaluated to be A, B, or C, more preferably needs to be evaluated to be A or B, and particularly preferably needs to be evaluated to be A.
E: Precipitation occurred at 0.1% by mass.

With `CCCc1ccc2c(c1)sc1c2ccc2c3ccc(CCC)cc3sc21` [Compound example 1], the Solubility result is “B (Precipitation did not occur at 1% by mass but occurred at 2% by mass.)”. For `CCCCCc1ccc2c(c1)sc1c2ccc2c3ccc(CCCCC)cc3sc21` [Compound example 3], the Solubility entry is “A (Precipitation did not occur at 2% by mass.)”. In the case of `CCCCCCCCc1ccc2c(c1)sc1c2ccc2c3ccc(CCCCCCCC)cc3sc21` [Compound example 6] it was “A (Precipitation did not occur at 2% by mass.)”; in that of `CCCCCCCCCCCCc1ccc2c(c1)sc1c2ccc2c3ccc(CCCCCCCCCCCC)cc3sc21` [Compound example 10], “A (Precipitation did not occur at 2% by mass.)”; in that of `CCCCCCCCCCCCCCCCCCc1ccc2c(c1)sc1c2ccc2c3ccc(CCCCCCCCCCCCCCCCCC)cc3sc21` [Compound example 16], “B (Precipitation did not occur at 1% by mass but occurred at 2% by mass.)”. The value for `CCCCCCCCc1ccc2cc3c(cc2c1)sc1c3ccc2c3cc4ccc(CCCCCCCC)cc4cc3sc21` [Compound example 20] was “B (Precipitation did not occur at 1% by mass but occurred at 2% by mass.)”; that for `CCCCCCCCCCCCc1ccc2cc3c(cc2c1)sc1c3ccc2c3cc4ccc(CCCCCCCCCCCC)cc4cc3sc21` [Compound example 24] was “B (Precipitation did not occur at 1% by mass but occurred at 2% by mass.)”; that for `CCCCCCCCc1ccc(-c2ccc3c(c2)sc2c3ccc3c4ccc(-c5ccc(CCCCCCCC)cc5)cc4sc32)cc1` [Compound example 34] was “B (Precipitation did not occur at 1% by mass but occurred at 2% by mass.)”. In the case of `CCCCCCCCc1ccc(-c2ccc3c(c2)sc2c3ccc3c4ccc(-c5ccc(CCCCCCCC)s5)cc4sc32)s1` [Compound example 62] it was “B (Precipitation did not occur at 1% by mass but occurred at 2% by mass.)”; in that of `CCCCCCCC/C=C/c1ccc2c(c1)sc1c2ccc2c3ccc(/C=C/CCCCCCCC)cc3sc21` [Compound example 298], “B (Precipitation did not occur at 1% by mass but occurred at 2% by mass.)”. Consider `CCCCCCC#Cc1ccc2c(c1)sc1c2ccc2c3ccc(C#CCCCCCC)cc3sc21` [Compound example 310], for which the Solubility result is on record as “B (Precipitation did not occur at 1% by mass but occurred at 2% by mass.)”.

Turning to `CCCCCCCCOc1ccc2c(c1)sc1c2ccc2c3ccc(OCCCCCCCC)cc3sc21` [Compound example 326], the Solubility entry was “B (Precipitation did not occur at 1% by mass but occurred at 2% by mass.)”.

With `CCCCCCCCCCCCc1ccc2cc3c(cc2c1)sc1c3ccc2c3ccc(CCCCCCCCCCCC)cc3sc21` [Compound example 344], the Solubility result is on record as “B (Precipitation did not occur at 1% by mass but occurred at 2% by mass.)”. The value for `CCCCCCCCCCCCc1ccc2c(c1)sc1c2ccc2c3ccccc3sc21` [Compound example 358] was “B (Precipitation did not occur at 1% by mass but occurred at 2% by mass.)”.

As to `CCCCCCCCCCCCc1ccc(-c2ccc3c(c2)sc2c3ccc3c4ccccc4sc32)cc1` [Compound example 372], the Solubility result is given as “B (Precipitation did not occur at 1% by mass but occurred at 2% by mass.)”.

Turning to `CCCCCCCCCCCCc1ccc(-c2ccc3c(c2)sc2c3ccc3c4ccccc4sc32)s1` [Compound example 386], the Solubility entry is listed as “B (Precipitation did not occur at 1% by mass but occurred at 2% by mass.)”. Turning to `CCCCCCCCc1ccc2sc3c(ccc4c5cc(CCCCCCCC)ccc5sc43)c2c1` [Compound example 396], the Solubility result was “B (Precipitation did not occur at 1% by mass but occurred at 2% by mass.)”. For the molecule `CCCCC(CC)Cc1ccc2c(c1)sc1c2ccc2c3ccc(CC(CC)CCCC)cc3sc21` (stereo not shown) [Compound example 407], the Solubility result was “A (Precipitation did not occur at 2% by mass.)”. For `CCCCCCCCc1ccc2c(c1)oc1c2ccc2c3ccc(CCCCCCCC)cc3oc21` [Compound example 416], the Solubility entry is listed as “C (Precipitation did not occur at 0.5% by mass but occurred at 1% by mass.)”. The value for `C[Si](C)(C)C#Cc1c(C#C[Si](C)(C)C)c2c3ccc(-c4cccs4)cc3sc2c2sc3cc(-c4cccs4)ccc3c12` [Compound example 427] was “D (Precipitation did not occur at 0.1% by mass but occurred at 0.5% by mass.)”; that for `c1ccc2c(c1)sc1c2ccc2c3ccccc3sc21` [comparative compound 1, reference compound] was “E (Precipitation occurred at 0.1% by mass.)”; that for `Cc1ccc2c(c1)sc1c2ccc2c3ccc(C)cc3sc21` [comparative compound 2, reference compound] was “E (Precipitation occurred at 0.1% by mass.)”. In the case of `c1ccc2c(c1)sc1c2ccc2c3cccc(-c4ccc5c6ccccc6c6ccccc6c5c4)c3sc21` [comparative compound 6, reference compound] it was “E (Precipitation occurred at 0.1% by mass.)”. The value for `c1ccc(-c2cccc(-c3ccc4sc5c(ccc6c7cc(-c8cccc(-c9ccccc9)c8)ccc7sc65)c4c3)c2)cc1` [compound 3, reference compound] was “E (Precipitation occurred at 0.1% by mass.)”; that for `c1ccc(-c2ccc3sc4c5sc6ccc(-c7ccccc7)cc6c5c(-c5ccccc5)c(-c5ccccc5)c4c3c2)cc1` [compound 4, reference compound] was “E (Precipitation occurred at 0.1% by mass.)”.

The record behind these values is US20160343958A1, “ORGANIC TRANSISTOR, COMPOUND, ORGANIC SEMICONDUCTOR MATERIAL FOR NON-LIGHT-EMITTING ORGANIC SEMICONDUCTOR DEVICE, MATERIAL FOR ORGANIC TRANSISTOR, COATING SOLUTION FOR NON-LIGHT-EMITTING ORGANIC SEMICONDUCTOR DEVICE, AND ORGANIC SEMICONDUCTOR FILM FOR NON-LIGHT-EMITTING ORGANIC SEMICONDUCTOR DEVICE” (FUJIFILM Corporation, priority 2014, published 2016).
